In brackets after ≈: the same amount, converted by molar mass. Where a SMILES comes first, the peptide text is derived from it. Bridges are numbered along the chain shown (N, C = ends). Roman numbers before positions name the chains, in order. [ ]: non-standard residue; d: D form. Leu(3R-OH) = CC(C)[C@@H](O)[C@H](N)C(=O)O; Tle = CC(C)(C)[C@H](N)C(=O)O; dDab = NCC[C@@H](N)C(=O)O; Dab = NCC[C@H](N)C(=O)O; Dap = NC[C@H](N)C(=O)O
Assays:
Type in all cases: cell-based
[1] = tested on: human red blood cells (hRBC); experiment: Hemolysis; conditions: red cells of human, 1 h, 200
How it was run: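 Washed fresh hRBC (20% v/v) were incubated with peptides at 200 μg/mL for 1 h at 37° C with shaking at 300 rpm. Supernatant OD540 was read after centrifugation and dilution, blank-corrected, and expressed as percent of the 2% Triton X-100 (100% lysis) control; PBS with 10% water gave 0%.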

[2] = tested on: Enterobacter cloacae 848840; conditions: 848840
How it was run: (§1)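 CLSI broth microdilution: inoculum ~10^6 CFU/mL in cation-adjusted Mueller-Hinton II broth, with peptide in serial two-fold dilutions plus Polysorbate 80 (0.002% final). MIC (μg/mL) is the lowest concentration without visible growth after 18-20 hours at 35° C.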

[3] = tested on: Acinetobacter baumannii 872842; conditions: 872842
How it was run: as §1

[4] = tested on: Pseudomonas aeruginosa ATCC 27853; conditions: ATCC 27853
How it was run: as §1

[5] = tested on: Acinetobacter baumannii DSM 30008; conditions: DSM 30008
How it was run: as §1

[6] = tested on: Escherichia coli ATCC 25922; conditions: ATCC 25922
How it was run: as §1

[7] = tested on: Klebsiella pneumoniae SSI #3010; conditions: SSI #3010
How it was run: as §1

[8] = tested on: Klebsiella pneumoniae 968733; conditions: 968733
How it was run: as §1

Escherichia coli 926415 = conditions: 926415
How it was run: as §1

| Compound | Hemolysis at 200 μg/mL [1] | MIC [2] | MIC [3] | MIC [4] | MIC [5] | MIC [6] | MIC [7] | MIC [8] | MIC (Escherichia coli 926415) |
| --- | --- | --- | --- | --- | --- | --- | --- | --- | --- |
| CC(=O)N[C@@H](CCN)C(=O)N[C@H](C(=O)N[C@H](C(=O)N[C@@H](Cc1ccc(O)cc1)C(=O)N[C@H]1CSSC[C@@H](C(=O)N[C@H](C(=O)N[C@@H](C)C(=O)N[C@@H](CO)C(N)=O)C(C)(C)C)NC(=O)[C@H](Cc2c[nH]c3ccccc23)NC(=O)[C@H](CO)NC(=O)[C@@H](CCN)NC(=O)[C@H](CCC(=O)N[C@@H](CCN)C(=O)N[C@H](C(=O)N[C@@H](CN)C(=O)N[C@H]2CCNC(=O)[C@H]([C@@H](C)O)NC(=O)[C@H](CCN)NC(=O)[C@H](CCN)NC(=O)[C@H](CC(C)C)NC(=O)[C@@H](CC(C)C)NC(=O)[C@H](CCN)NC2=O)[C@@H](C)O)NC1=O)[C@@H](C)O)C(C)C [Ex. 237] (I: Ac-[Dab]VTYCE[dDab]SWC[Tle]AS-NH2 / II: [Dab]T[Dap][Dab][Dab][dL]L[Dab][Dab]T; disulfide I:5-I:10; amide I:6-II:N; lactam II:4-II:C) | <1% | 0.125 µg/mL (≈ 0.05 µM) | 0.125 µg/mL (≈ 0.05 µM) | 0.125 µg/mL (≈ 0.05 µM) | 0.03125 µg/mL (≈ 0.0125 µM) | 0.0625 µg/mL (≈ 0.025 µM) | 0.0625 µg/mL (≈ 0.025 µM) | 0.5 µg/mL (≈ 0.2 µM) | 0.25 µg/mL (≈ 0.1 µM) |
| CC(=O)N[C@@H](CCN)C(=O)N[C@H](C(=O)N[C@H](C(=O)N[C@@H](Cc1ccc(O)cc1)C(=O)N[C@H]1CSSC[C@@H](C(=O)N[C@H](C(=O)N[C@@H](C)C(=O)N[C@H](C(N)=O)C(C)C)C(C)(C)C)NC(=O)[C@H](Cc2c[nH]c3ccccc23)NC(=O)[C@H](CO)NC(=O)[C@@H](CCN)NC(=O)[C@H](CCC(=O)N[C@@H](CCN)C(=O)N[C@H](C(=O)N[C@@H](CN)C(=O)N[C@H]2CCNC(=O)[C@H]([C@@H](C)O)NC(=O)[C@H](CCN)NC(=O)[C@H](CCN)NC(=O)[C@H](CC(C)C)NC(=O)[C@@H](CC(C)C)NC(=O)[C@H](CCN)NC2=O)[C@@H](C)O)NC1=O)[C@@H](C)O)C(C)C [Ex. 238] (I: Ac-[Dab]VTYCE[dDab]SWC[Tle]AV-NH2 / II: [Dab]T[Dap][Dab][Dab][dL]L[Dab][Dab]T; disulfide I:5-I:10; amide I:6-II:N; lactam II:4-II:C) | 2% | 0.125 µg/mL (≈ 0.0498 µM) | 0.0625 µg/mL (≈ 0.0249 µM) | 0.125 µg/mL (≈ 0.0498 µM) | 0.03125 µg/mL (≈ 0.0125 µM) | 0.0625 µg/mL (≈ 0.0249 µM) | 0.125 µg/mL (≈ 0.0498 µM) | 0.25 µg/mL (≈ 0.0996 µM) | 0.125 µg/mL (≈ 0.0498 µM) |
| CC(=O)N[C@@H](CCN)C(=O)N[C@@H](CC(C)C)C(=O)N[C@H](C(=O)N[C@@H](Cc1ccc(O)cc1)C(=O)N[C@H]1CSSC[C@@H](C(=O)N[C@H](C(=O)N[C@@H](C)C(=O)N[C@H](C(N)=O)C(C)C)C(C)(C)C)NC(=O)[C@H](Cc2c[nH]c3ccccc23)NC(=O)[C@H](CCN)NC(=O)[C@@H](CCN)NC(=O)[C@H](CCC(=O)N[C@@H](CCN)C(=O)N[C@H](C(=O)N[C@@H](CN)C(=O)N[C@H]2CCNC(=O)[C@H]([C@@H](C)O)NC(=O)[C@H](CCN)NC(=O)[C@H](CCN)NC(=O)[C@H](CC(C)C)NC(=O)[C@@H](CC(C)C)NC(=O)[C@H](CCN)NC2=O)[C@@H](C)O)NC1=O)[C@@H](C)O [Ex. 239] (I: Ac-[Dab]LTYCE[dDab][Dab]WC[Tle]AV-NH2 / II: [Dab]T[Dap][Dab][Dab][dL]L[Dab][Dab]T; disulfide I:5-I:10; amide I:6-II:N; lactam II:4-II:C) | 1% | 0.25 µg/mL (≈ 0.0985 µM) | 0.125 µg/mL (≈ 0.0493 µM) | 0.25 µg/mL (≈ 0.0985 µM) | 0.0625 µg/mL (≈ 0.0246 µM) | 0.125 µg/mL (≈ 0.0493 µM) | 0.125 µg/mL (≈ 0.0493 µM) | 0.25 µg/mL (≈ 0.0985 µM) | 0.0625 µg/mL (≈ 0.0246 µM) |
| CC(=O)N[C@@H](CCN)C(=O)N[C@H](C(=O)N[C@H](C(=O)N[C@@H](Cc1ccc(O)cc1)C(=O)N[C@H]1CSSC[C@@H](C(=O)N[C@H](C(=O)N[C@@H](C)C(=O)N[C@H](C(N)=O)C(C)C)C(C)(C)C)NC(=O)[C@H](Cc2c[nH]c3ccccc23)NC(=O)[C@H](CCN)NC(=O)[C@@H](CCN)NC(=O)[C@H](CCC(=O)N[C@@H](CCN)C(=O)N[C@H](C(=O)N[C@@H](CN)C(=O)N[C@H]2CCNC(=O)[C@H]([C@@H](C)O)NC(=O)[C@H](CCN)NC(=O)[C@H](CCN)NC(=O)[C@H](CC(C)C)NC(=O)[C@@H](CC(C)C)NC(=O)[C@H](CCN)NC2=O)[C@@H](C)O)NC1=O)[C@@H](C)O)[C@H](O)C(C)C [Ex. 240] (I: Ac-[Dab][Leu(3R-OH)]TYCE[dDab][Dab]WC[Tle]AV-NH2 / II: [Dab]T[Dap][Dab][Dab][dL]L[Dab][Dab]T; disulfide I:5-I:10; amide I:6-II:N; lactam II:4-II:C) | 1% | 0.125 µg/mL (≈ 0.049 µM) | 0.0625 µg/mL (≈ 0.0245 µM) | 0.25 µg/mL (≈ 0.0979 µM) | 0.03125 µg/mL (≈ 0.0122 µM) | 0.0625 µg/mL (≈ 0.0245 µM) | 0.125 µg/mL (≈ 0.049 µM) | 0.5 µg/mL (≈ 0.196 µM) | 0.0625 µg/mL (≈ 0.0245 µM) |
| CC(C)C[C@@H]1NC(=O)[C@@H](CC(C)C)NC(=O)[C@H](CCN)NC(=O)[C@@H](NC(=O)[C@H](CCN)NC(=O)[C@@H](NC(=O)[C@H](CCN)NC(=O)CC[C@@H]2NC(=O)[C@H](CCN)NC(=O)[C@H](Cc3ccc(O)cc3)NC(=O)[C@@H](NC(=O)[C@@H](NC(=O)[C@H](N)CO)C(C)C)CSSC[C@@H](C(=O)N[C@@H](CO)C(=O)N[C@H](C)C(=O)O)NC(=O)[C@H](C(C)(C)C)NC(=O)[C@H](CO)NC(=O)[C@H](Cc3c[nH]c4ccccc34)NC(=O)[C@H]([C@@H](C)O)NC(=O)[C@@H](CCN)NC2=O)[C@@H](C)O)CCNC(=O)[C@H]([C@@H](C)O)NC(=O)[C@H](CCN)NC(=O)[C@H](CCN)NC1=O [Ex. 241] (I: H-[dS]VCY[Dab]E[dDab]TWS[Tle]CS[dA]-OH / II: [Dab]T[Dab][Dab][Dab][dL]L[Dab][Dab]T; disulfide I:3-I:12; amide I:6-II:N; lactam II:4-II:C) | <1% | 2 µg/mL (≈ 0.782 µM) | 0.125 µg/mL (≈ 0.0489 µM) | 0.25 µg/mL (≈ 0.0977 µM) | 0.125 µg/mL (≈ 0.0489 µM) | 0.125 µg/mL (≈ 0.0489 µM) | 0.125 µg/mL (≈ 0.0489 µM) | 1 µg/mL (≈ 0.391 µM) | 1 µg/mL (≈ 0.391 µM) |
| CC(C)C[C@@H]1NC(=O)[C@@H](CC(C)C)NC(=O)[C@H](CCN)NC(=O)[C@@H](NC(=O)[C@H](CCN)NC(=O)[C@@H](NC(=O)[C@H](CCN)NC(=O)CC[C@@H]2NC(=O)[C@H](CCN)NC(=O)[C@H](Cc3ccc(O)cc3)NC(=O)[C@@H](NC(=O)[C@@H](NC(=O)[C@H](N)CO)C(C)C)CSSC[C@@H](C(=O)N[C@@H](CO)C(=O)N[C@H](CO)C(=O)O)NC(=O)[C@H](C(C)(C)C)NC(=O)[C@H](CO)NC(=O)[C@H](Cc3c[nH]c4ccccc34)NC(=O)[C@H]([C@@H](C)O)NC(=O)[C@@H](CCN)NC2=O)[C@@H](C)O)CCNC(=O)[C@H]([C@@H](C)O)NC(=O)[C@H](CCN)NC(=O)[C@H](CCN)NC1=O [Ex. 242] (I: H-[dS]VCY[Dab]E[dDab]TWS[Tle]CS[dS]-OH / II: [Dab]T[Dab][Dab][Dab][dL]L[Dab][Dab]T; disulfide I:3-I:12; amide I:6-II:N; lactam II:4-II:C) | <1% | 4 µg/mL (≈ 1.55 µM) | 0.125 µg/mL (≈ 0.0486 µM) | 0.125 µg/mL (≈ 0.0486 µM) | 0.125 µg/mL (≈ 0.0486 µM) | 0.0625 µg/mL (≈ 0.0243 µM) | 0.125 µg/mL (≈ 0.0486 µM) | 1 µg/mL (≈ 0.389 µM) | 0.25 µg/mL (≈ 0.0971 µM) |
| CC(=O)N[C@@H](CCN)C(=O)N[C@H](C(=O)N[C@H]1CSSC[C@@H](C(=O)N[C@@H](CO)C(=O)N[C@@H](CCC(=O)O)C(N)=O)NC(=O)[C@H](C(C)(C)C)NC(=O)[C@H](CO)NC(=O)[C@H](Cc2c[nH]c3ccccc23)NC(=O)[C@H](CCN)NC(=O)[C@@H](CCN)NC(=O)[C@H](CCC(=O)N[C@@H](CCN)C(=O)N[C@H](C(=O)N[C@@H](CN)C(=O)N[C@H]2CCNC(=O)[C@H]([C@@H](C)O)NC(=O)[C@H](CCN)NC(=O)[C@H](CCN)NC(=O)[C@H](CC(C)C)NC(=O)[C@@H](CC(C)C)NC(=O)[C@H](CCN)NC2=O)[C@@H](C)O)NC(=O)[C@H](CO)NC(=O)[C@H](Cc2ccc(O)cc2)NC1=O)C(C)C [Ex. 243] (I: Ac-[Dab]VCYSE[dDab][Dab]WS[Tle]CSE-NH2 / II: [Dab]T[Dap][Dab][Dab][dL]L[Dab][Dab]T; disulfide I:3-I:12; amide I:6-II:N; lactam II:4-II:C) | <1% | 0.25 µg/mL (≈ 0.0946 µM) | 0.0625 µg/mL (≈ 0.0237 µM) | 0.25 µg/mL (≈ 0.0946 µM) | 0.0625 µg/mL (≈ 0.0237 µM) | 0.0625 µg/mL (≈ 0.0237 µM) | 0.0625 µg/mL (≈ 0.0237 µM) | 0.125 µg/mL (≈ 0.0473 µM) | 0.125 µg/mL (≈ 0.0473 µM) |

From patent US11629171B2, “Beta-hairpin peptidomimetics” (POLYPHOR AG, priority 2017, dated 2023)
